Results on six compounds are retold here after patent US9273095B2, “Antibiotic peptide and preparation method therefor and application therefor” (priority 2011, dated 2016).

Converted amounts (≈) assume the structure as drawn. Non-standard residues stand in square brackets, D forms with d. Residues, ends and D or L forms follow the SMILES beside them.

One data set has as its system Enterococcus faecium. As to the kind of experiment: microbe, parasite or virus in culture. In kind it is cell-based. How it is done: The experimental strains are 37 standard strains preserved in lab and clinical isolated bacteria, including drug-resistant bacteria and quality-control bacteria selecting Staphylococcus aureus ATCC29213, Enterococcus faecalis ATCC29212, Escherichia coli ATCC25922, Pseudomonas aeruginosa ATCC27853 and klebsiella pneumoniae ATCC700603.
(1) Sensitivity test is conducted with two-fold agar dilution method and Denlay multipoint inoculator. Test bacteria are cultured with nutrient broth and brain heart infusion.
(2) The drug is double diluted into different concentration with MH broth after dissolved and then placed in the plate respectively.
(4) After solidification of the culture medium in the plate, test bacteria (10^4CFU/point) are inoculated by multipoint inoculator and cultured for 18 hours at constant 35° C. Then observe the results.

Data set [1] in a line: Circular dichroism (CD) spectroscopy, helical structure. Particulars: for 50% TFE % helix / Benign buffer % helix: relative to ellipticity (100%) of reference peptide in 50% TFE; for Benign buffer [θ]222 / 50% TFE [θ]222: mean residue molar ellipticity at 222 nm, 25° C.; for Benign buffer [θ]222: 100 mM KCl, 50 mM PO4, pH 7.0; for 50% TFE [θ]222: buffer containing 50% TFE. In kind it is physicochemical. How it is done: The mean residue molar ellipticities of peptides are determined by circular dichroism (CD) spectroscopy, using a Jasco J-720 spectropolarimeter (Jasco, Easton, Md.), at 25° C. under benign conditions (50 mM KH2PO4/K2HPO4/100 mM KCl, pH7), as well as in the presence of an α-helix inducing solvent, 2,2,2-trifluoroethanol (TFE) (50 mM KH2PO4/K2HPO4/100 mM KCL, pH 7 buffer/50% TFE). A 10-fold dilution of a 500 μM stock solution of the peptide is loaded into a 0.02 cm fused silica cell and its mean residue molar ellipticity scanned from 190 to 250 nm. The values of mean residue molar ellipticities of the peptide at a wavelength of 222 nm are used to estimate the relative amount of α-helicity of the peptides.
To determine the secondary structure of peptides in different environments, circular dichroism (CD) spectra of the peptide analogs are measured under physiologically related pH and ionic strength (100 mM KCl, 50 mM aq. PO4, pH 7 referred to as benign conditions) and also in 50% TFE to mimic the hydrophobic environment of the membrane. CD spectra of the peptide analogs are measured under benign conditions (100 mM KCl, 50 mM KH2PO4/K2HPO4, pH 7, referred to as KP buffer) and also in 50% trifluoroethanol (TFE) to mimic the hydrophobic environment of the membrane. […] However, in the presence of 50% TFE, all three L-peptides are fully folded α-helical structures with similar molar ellipticities and helicity.
FIG. 2 illustrates graphical results of Circular dichroism (CD) spectra of peptides at pH 7.4 and 25° C., in 50 mM aq. PO4 containing 100 mM KCl, wherein KP buffer (50 mM KH2PO4, K2HPO4, 100 mM KCl, pH 7.4) mimics hydrophilic environment and KP buffer-TFE (1:1 [vol/vol]) mimics hydrophobic environment of cell membrane. The figure above represents the CD spectra of peptides in benign buffer without TFE, whilst the figure below represents CD spectra obtained in the presence of 50% TFE.
(In general: CD spectra are sensitive to the conformation of chiral molecules.)

Data set [2] is described as follows: RP-HPLC temperature profiling: hydrophobicity and self-association. The data set is classed as physicochemical. Particulars: for tR(min) 5° C. / tR(min) 80° C.: RP-HPLC temperature profiling; for PA (min), association parameter: maximal normalized retention time difference within 5-80° C., self-association ability; for tR(min) Max: maximal retention time during temperature profiling 5-80° C.; for ΔtR(X-Peptide C)(min) 5° C.: retention time difference to control peptide C at 5° C.; for ΔtR(X-Peptide C)(min) 5° C. / ΔtR(X-Peptide C)(min) 80° C.: relative hydrophobicity; for ΔtR(X-Peptide C)(min) 80° C.: retention time difference to control peptide C at 80° C.; for Hydrophobicity tR5: retention time in RP-HPLC at pH 2, 5° C.; for Hydrophobicity tR80: retention time in RP-HPLC at pH 2, 80° C. How it is done: Peptides are analyzed on an Agilent 1200 series liquid chromatograph (Little Falls, Del.). Runs are performed on a Zorbax 300 SB-C8 column (150×4.6 mm I.D.; 5 μm particle size, 300 Å pore size) from Agilent Technologies using linear AB gradient (1% acetonitrile/min) and a flow rate of 1 ml/min, where solvent A is 0.05% aqueous TFA, pH 2 and solvent B is 0.05% TFA in acetonitrile.
We further use temperature profiling during RP-HPLC to determine the self-association ability of various analogs of PL-13 (SEQ ID NO: 1) which would occur through interaction of the non-polar faces of these amphipathic peptides α-helices. We use 50% TFE aqueous acetonitrile and hydrophobic conditions in the reversed-phase column (hydrophobic stationary phase and the hydrophobic organic solvent in the mobile phase) since the hydrophobic environment of a reversed-phase column also could induce α-helical structure. Since its introduction, the technique of RP-HPLC temperature profiling has been applied on several types of molecules, including cyclic β-sheet peptides, monomeric α-helices and α-helices that dimerize, as well as α-helices that dimerize to form coiled-coils. Although peptides are eluted from a reversed-phase column mainly by an adsorption/desorption mechanism, even a peptide strongly bound to a hydrophobic stationary phase will partition between the matrix and the mobile phase when the acetonitrile content becomes high enough during gradient elution. In summary, the mechanism is based on four assumptions: (i) at low temperature, just as an amphipathic α-helical peptide is able to dimerize in aqueous solution (through its hydrophobic, non-polar face), it will dimerize in solution during partitioning in reversed-phase chromatography; (ii) at higher temperatures, the monomer-dimer equilibrium favors the monomer as the dimer is disrupted; (iii) at sufficiently high temperatures, only monomer is present in solution; and (iv) peptide is always bound in its monomeric helical form to the hydrophobic stationary phase, i.e., the dimer can only be present in solution and disruption of the dimer is required for rebinding to the RP-HPLC matrix.
([θ]222=−3,950). Since peptide C is a monomeric random coil peptide in both aqueous and hydrophobic media, its retention behavior over the temperature range 5-80° C. represents only general temperature effects on peptide retention behavior, i.e., a linear decrease in peptide retention time with increasing temperature due to greater solute diffusivity and enhanced mass transfer between the stationary and mobile phases at higher temperatures. Thus, after normalization to the retention times of peptide C, the retention behavior of the peptides only represents peptide self-association ability. Note that the higher the PA value, the greater the self-association ability. The order of peptide self-association ability of the three pairs of peptide enantiomers is identical to the order of peptide hydrophobicity. Apart from the decrease in retention time due to the general temperature effects noted above, destruction of the α-helix will also occur with increasing temperature, resulting in reduced retention times as the peptides become increasingly random coils.
The retention time data for the peptides is shown in Table 6 which records retention times at 5° C., the maximal retention times and retention times at 80° C. during the temperature profiling. Temperatures of 5-80° C. are the lower and upper temperature limits of temperature profiling in RP-HPLC, representing polymerization of the peptides at 5° C. and the monomerization of peptides at 80° C. due to denaturation of peptides by high temperature and dissociation of the polymers. The maximal retention times represent the threshold points at which peptides totally transform from polymeric to monomeric form. […]

Where [3] appears, read: 06-12 (VREF) Vancomycin-resistant enterococci.

As for `C[C@H]1COc2c(N3CCN(C)CC3)c(F)cc3c(=O)c(C(=O)O)cn1c23` [Levofloxacin, levofloxacin, reference compound], the MIC in the data set with Enterococcus faecium (Enterococcus faecium 06-1) is 2.40 µM (≈ 0.867 µg/mL); against Enterococcus faecium (Enterococcus faecium, 06-12 (VREF) Vancomycin-resistant enterococci), 2.4 µM (≈ 0.867 µg/mL).
With `CC[C@@H](C)[C@@H](NC(=O)[C@@H](CCCCN)NC(=O)[C@@H](CO)NC(=O)[C@@H](Cc1ccccc1)NC(=O)[C@@H](CC(C)C)NC(=O)[C@@H](CCCCN)NC(=O)[C@@H](CCC(=O)O)NC(=O)[C@@H](CC(C)C)NC(=O)[C@@H](CCCNC(=N)N)NC(=O)[C@@H](CCCCN)NC(=O)[C@@H](Cc1ccccc1)NC(C)=O)C(=O)N[C@H](Cc1c[nH]c2ccccc12)C(=O)N[C@H](CC(N)=O)C(=O)N[C@H](Cc1c[nH]c2ccccc12)C(=O)N[C@H](CCCCN)C(N)=O` [PL-17] (Ac-[dF][dK][dR][dL][dE][dK][dL][dF][dS][dK][dI][dW][dN][dW][dK]-NH2), the MIC stood at 1.7 µM (≈ 3.51 µg/mL) against Enterococcus faecium (setting [3]) and 10.7 µM (≈ 22.1 µg/mL) in the data set on Enterococcus faecium (Enterococcus faecium 06-1).
On to `CC(=O)N[C@H](Cc1ccccc1)C(=O)N[C@H](CCCCN)C(=O)N[C@H](CCCCN)C(=O)N[C@H](CC(C)C)C(=O)N[C@H](CCCCN)C(=O)N[C@H](CCCCN)C(=O)N[C@H](CC(C)C)C(=O)N[C@H](Cc1ccccc1)C(=O)N[C@H](CO)C(=O)N[C@H](CCCCN)C(=O)N[C@H](CC(C)C)C(=O)N[C@H](Cc1c[nH]c2ccccc12)C(=O)N[C@H](CC(N)=O)C(=O)N[C@H](Cc1c[nH]c2ccccc12)C(=O)N[C@H](CCCCN)C(N)=O` [PL-18] (Ac-[dF][dK][dK][dL][dK][dK][dL][dF][dS][dK][dL][dW][dN][dW][dK]-NH2), for which, in data set [1], the “50% TFE % helix” value came out at 80.5%, the “Benign buffer % helix” value was determined as 8.2% and the “Benign buffer [θ]222” value is reported as 2300 deg · cm^2 · dmol^−1. In data set [2], the “tR(min) 5° C.” value is given as 35.75 min; the “tR(min) 80° C.” value turned out to be 33.37 min; the “PA (min), association parameter” value turned out to be 0.56 min; the “tR(min) Max” value amounted to 35.75 min. Besides, in data set [2], the “ΔtR(X-Peptide C)(min) 5° C.” value is 13.19 min, the “ΔtR(X-Peptide C)(min) 80° C.” value was found to be 13.45 min, the “Hydrophobicity tR5” value came to 35.75 min and the “Hydrophobicity tR80” value came out at 33.37 min. For the same compound, the MIC against Enterococcus faecium (setting [3]) is 5.3 µM (≈ 10.8 µg/mL). In the data set on Enterococcus faecium (Enterococcus faecium 06-1), this compound gave an MIC of 5.3 µM (≈ 10.8 µg/mL).
As for `CC(=O)N[C@H](Cc1ccccc1)C(=O)N[C@H](CCCCN)C(=O)N[C@H](CCCCN)C(=O)N[C@H](Cc1ccccc1)C(=O)N[C@H](CCCCN)C(=O)N[C@H](CCCCN)C(=O)N[C@H](CC(C)C)C(=O)N[C@H](CC(C)C)C(=O)N[C@H](CO)C(=O)N[C@H](CCCCN)C(=O)N[C@H](CC(C)C)C(=O)N[C@H](Cc1c[nH]c2ccccc12)C(=O)N[C@H](CC(N)=O)C(=O)N[C@H](Cc1c[nH]c2ccccc12)C(=O)N[C@H](CCCCN)C(N)=O` [PL-43] (Ac-[dF][dK][dK][dF][dK][dK][dL][dL][dS][dK][dL][dW][dN][dW][dK]-NH2; N-terminus and C-terminus assumed), in data set [1], the “50% TFE % helix” value was 96.3% and the “Benign buffer % helix” value was 14.0%. For the same compound, in data set [2], the “tR(min) 5° C.” value worked out at 41.64 min; the “tR(min) 80° C.” value is on record as 40.52 min; the “PA (min), association parameter” value stood at 1.65 min; the “tR(min) Max” value worked out at 41.97 min. In data set [2], the “ΔtR(X-Peptide C)(min) 5° C.” value was determined as 19.08 min, the “ΔtR(X-Peptide C)(min) 80° C.” value was 20.60 min, the “Hydrophobicity tR5” value worked out at 41.64 min and the “Hydrophobicity tR80” value is recorded as 40.52 min.
For the compound Ac-FKKLKKLFSKLWNWK-NH2 [PL-13], in data set [1], the “50% TFE % helix” value was found to be 80.7%, the “Benign buffer % helix” value turned out to be 8.3%, the “Benign buffer [θ]222” value was −2350 deg · cm^2 · dmol^−1 and the “50% TFE [θ]222” value was −22750 deg · cm^2 · dmol^−1. In data set [2], the “tR(min) 5° C.” value is on record as 35.75 min; the “tR(min) 80° C.” value amounted to 33.37 min; the “PA (min), association parameter” value is 0.56 min; the “tR(min) Max” value came out at 35.75 min. For the same compound, in data set [2], the “ΔtR(X-Peptide C)(min) 5° C.” value amounted to 13.19 min, the “ΔtR(X-Peptide C)(min) 80° C.” value came to 13.45 min, the “Hydrophobicity tR5” value is recorded as 35.75 min and the “Hydrophobicity tR80” value was 33.37 min. The MIC against Enterococcus faecium (setting [3]) amounted to 5.3 µM. This compound came in with an MIC against Enterococcus faecium (Enterococcus faecium 06-1) of 5.3 µM.
Consider Ac-FKRLEKLFSKIWNWK-NH2 [PL-12], for which, in data set [1], the “50% TFE % helix” value is listed as 93.8%, the “Benign buffer % helix” value is 11.9%, the “Benign buffer [θ]222” value is −3350 deg · cm^2 · dmol^−1 and the “50% TFE [θ]222” value was −26450 deg · cm^2 · dmol^−1. Further, the “secondary structure by CD (in words)” value in data set [1] (KP buffer (benign)) is reported as “only partially helical”. In data set [2], the “Hydrophobicity tR5” value is reported as 38.04 min and the “Hydrophobicity tR80” value came out at 36.10 min. In the data set on Enterococcus faecium (setting [3]), this compound returned an MIC of 1.3 µM. The compound also showed an MIC in the data set on Enterococcus faecium (Enterococcus faecium 06-1) of 5.3 µM.
